Values of other authors, collected in patent publication US20070166227A1, “Crowned dithiocarbamate metal complexes and methods for their use” (priority 2004, published 2007).

O=C(O)C1CCCN1C(=S)[S-].O=C(O)C1CCCN1C(=S)[S-].[Cu+2] (centres unmarked) [Cu(ProDTC)2]
binding affinity for NO: log β1 (log β1): 9.74 | binding affinity for NO: log β2 (log β2): 15.44
